Values of other authors as cited in US20170151152A1, “COMBINATION OF N-ACETYL GLUCOSAMINE WITH ABSCISIC ACID AND USES THEREOF” (priority 2015, published 2017).

Test system: cell cultures
Conditions: 1%, 3%, 5% of 30 μL of NAG

CC(=O)N[C@H]1C(O)O[C@H](CO)[C@@H](O)[C@@H]1O (stereo partly shown) [NAG, N-acetyl glucosamine]
melanin in cell cultures: dose dependent decrease in melanin
